For 32 compounds, IC50 results are on record in patent US10052306B2 (LUC THERAPEUTICS, INC., priority 2013, dated 2018).

In this assay the target is NR1/NR2B (Homo sapiens (Human), UniProt Q05586+Q13224). Nature of the assay: Cell assay: FDSS Ca2+ influx inhibition in HEK293 cells expressing NR1/NR2B.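 Further: Fluo-8 Ca2+ signal read on Hamamatsu FDSS 6000 after glutamate, glycine and Ca2+ challenge following 10 min compound preincubation, end/baseline fluorescence ratio compared with MK801 control.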 To be noted: Ca2+ influx.
Setting [1] is: NR2B NAM IC50, HEK293 cells expressing NR1/NR2B.
Setting [2] is: Binned Activity, HEK293 cells expressing NR1/NR2B, binned NR2B NAM IC50.

A value given as a limit tells only on which side of the number the result lay.

Chain of NR1/NR2B (Q13224 27-1484, other chains not shown): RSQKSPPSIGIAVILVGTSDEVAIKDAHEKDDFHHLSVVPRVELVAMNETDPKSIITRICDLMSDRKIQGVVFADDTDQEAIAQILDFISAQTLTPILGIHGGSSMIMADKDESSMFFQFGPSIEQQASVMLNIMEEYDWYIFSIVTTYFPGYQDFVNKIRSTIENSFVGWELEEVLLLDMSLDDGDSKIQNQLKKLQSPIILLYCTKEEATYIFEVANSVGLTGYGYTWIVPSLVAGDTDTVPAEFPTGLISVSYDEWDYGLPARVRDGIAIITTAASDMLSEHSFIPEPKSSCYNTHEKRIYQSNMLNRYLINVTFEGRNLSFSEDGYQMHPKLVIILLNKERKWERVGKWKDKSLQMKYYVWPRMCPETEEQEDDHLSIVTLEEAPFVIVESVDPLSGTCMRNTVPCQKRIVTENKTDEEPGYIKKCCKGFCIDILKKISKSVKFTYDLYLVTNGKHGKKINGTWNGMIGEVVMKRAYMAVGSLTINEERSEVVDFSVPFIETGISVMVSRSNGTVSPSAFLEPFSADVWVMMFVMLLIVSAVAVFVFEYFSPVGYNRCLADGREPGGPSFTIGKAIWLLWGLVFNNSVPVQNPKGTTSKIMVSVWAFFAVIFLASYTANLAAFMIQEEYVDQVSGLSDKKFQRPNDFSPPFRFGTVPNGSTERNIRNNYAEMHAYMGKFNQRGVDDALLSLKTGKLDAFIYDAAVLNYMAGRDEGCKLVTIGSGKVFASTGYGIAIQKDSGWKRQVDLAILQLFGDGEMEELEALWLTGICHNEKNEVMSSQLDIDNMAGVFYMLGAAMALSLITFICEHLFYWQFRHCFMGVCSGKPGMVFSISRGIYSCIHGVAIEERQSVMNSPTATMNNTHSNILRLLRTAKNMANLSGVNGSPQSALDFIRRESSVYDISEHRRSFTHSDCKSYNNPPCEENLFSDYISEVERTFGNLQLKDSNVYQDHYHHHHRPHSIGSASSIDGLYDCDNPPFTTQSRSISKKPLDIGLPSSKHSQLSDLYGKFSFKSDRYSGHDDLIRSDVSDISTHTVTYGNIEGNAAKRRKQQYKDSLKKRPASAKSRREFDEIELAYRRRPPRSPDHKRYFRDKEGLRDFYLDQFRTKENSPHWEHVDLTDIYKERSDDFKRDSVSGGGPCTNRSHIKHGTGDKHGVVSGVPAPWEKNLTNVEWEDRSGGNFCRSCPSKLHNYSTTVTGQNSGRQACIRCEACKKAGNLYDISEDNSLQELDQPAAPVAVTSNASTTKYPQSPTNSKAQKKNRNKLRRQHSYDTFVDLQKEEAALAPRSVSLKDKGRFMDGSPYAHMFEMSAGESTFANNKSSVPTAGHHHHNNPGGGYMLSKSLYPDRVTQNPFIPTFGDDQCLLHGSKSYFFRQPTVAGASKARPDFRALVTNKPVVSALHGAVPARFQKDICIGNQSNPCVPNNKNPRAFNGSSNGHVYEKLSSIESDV

As for `O=c1[nH]c2ccc(C(O)CN3C[C@@H]4C[C@@](O)(Cc5ccccc5)C[C@@H]4C3)cc2o1` (mixture of isomers) [Example 154, rac-6-(2-((3aR,5r,6aS)-5-benzyl-5-hydroxyhexahydrocyclo-penta[c]pyrrol-2(1H)-yl)-1-hydroxyethyl)benzo[d] oxazol-2(3H)-one], half-maximal inhibition under setting [1] (IC50) was put at 52.4 nM. `COc1cccc([C@]2(O)C[C@H]3CN(C(=O)Nc4cccc(Cl)c4)C[C@H]3C2)c1` [Example 15] returned an IC50 under setting [2] of more than 10000 nM. Under setting [1], `Oc1ccc(C(O)CN2C[C@@H]3C[C@@](O)(Cc4ccc(F)c(F)c4)C[C@@H]3C2)cc1` (mixture of isomers) [Example 253, rac-(3aR,5r,6aS)-5-(3,4-difluorobenzyl)-2-(2-hydroxy-2-(4-hydroxyphenyl)ethyl) octahydrocyclopenta[c] pyrrol-5-ol] yielded an IC50 of 31.5 nM. This lies in the double-digit nanomolar range.

Compound `CC(C(O)c1ccc(O)cc1)N1C[C@@H]2C[C@@](O)(c3ccc(C(C)(C)C)cc3)C[C@@H]2C1` (mixture of isomers) [Example 96, rac-5-(4-tert-butylphenyl)-2-[1-hydroxy-1-(4-hydroxyphenyl)propan-2-yl]-octahydrocyclopenta[c] pyrrol-5-ol] registered an IC50 under setting [1] of 10500 nM. On to `COc1cccc([C@]2(O)C[C@H]3CN(C(=O)Nc4ccc(C)cc4C)C[C@H]3C2)c1` [Example 49], for which the IC50 runs as follows: under setting [2], more than 10000 nM; under setting [1], not below 10000 nM. Consider `CC(C(=O)c1ccc(O)cc1)N1C[C@@H]2C[C@@](O)(c3ccc(F)cc3)C[C@@H]2C1` (mixture of isomers) [Example 92, rac-2-[5-(4-fluorophenyl)-5-hydroxy-octahydrocyclopenta[c]pyrrol-2-yl]-1-(4-hydroxyphenyl)propan-1-one], for which the IC50 under setting [2] is more than 10000 nM and the IC50 under setting [1] was not below 10000 nM.

Turning to `CC(C(=O)c1ccc(O)cc1)N1C[C@@H]2C[C@@](O)(Cc3ccccc3)C[C@@H]2C1` (mixture of isomers) [Example 293, rac-2-((3aR,5r,6aS)-5-benzyl-5-hydroxyhexahydrocyclo-penta[c]pyrrol-2(1H)-yl)-1-(4-hydroxyphenyl)propan-1-one], under setting [1], the IC50 amounted to 100 nM. As for `CC(C)(C)c1ccc([C@]2(O)C[C@H]3CN(CC(O)c4cccc(C(F)(F)F)c4)C[C@H]3C2)cc1` (mixture of isomers) [Example 70, rac-5-(4-(tert-butyl)phenyl)-2-(2-hydroxy-2-(3-(trifluoromethyl)phenyl)ethyl)octahydrocyclo-penta[c]pyrrol-5-ol], the IC50 under setting [2] was more than 10000 nM and the IC50 under setting [1] is not below 10000 nM. The matching figures for `OC(CN1C[C@H]2CC(Cc3ccccc3)C[C@H]2C1)c1cccc(C(F)(F)F)c1` (mixture of isomers) [Example 309, rac-2-((3aR,6aS)-5-benzylhexahydrocyclo-penta[c]pyrrol-2(1H)-yl)-1-(3-(trifluoromethyl)phenyl) ethanol]: more than 10000 nM and not below 10000 nM. The matching figures for `Oc1ccc(C(O)CN2C[C@@H]3C[C@@](O)(Cc4cccs4)C[C@@H]3C2)cc1F` (mixture of isomers) [Example 222, rac-2-(2-(3-fluoro-4-hydroxyphenyl)-2-hydroxyethyl)-5-(thiophen-2-ylmethyl)octahydrocyclo-penta[c]pyrrol-5-ol]: less than 100 nM and 19.3 nM. Taken in the same sequence, the figures for `Oc1cnc(C(O)CN2C[C@@H]3C[C@@](O)(Cc4ccccc4)C[C@@H]3C2)cn1` (mixture of isomers) [Example 188, rac-(3aR,5r,6aS)-5-benzyl-2-(2-hydroxy-2-(5-hydroxypyrazin-2-yl)ethyl)octahydrocyclo-penta[c]pyrrol-5-ol] were more than 10000 nM and not below 10000 nM.

Consider `Oc1ccc(C(O)CN2C[C@H]3CN(Cc4ccccc4)C[C@H]3C2)nc1` (mixture of isomers) [Example 329, rac-6-(2-(5-benzylhexahydropyrrolo [3,4-c]pyrrol-2(1H)-yl)-1-hydroxyethyl) pyridin-3-ol], for which the IC50 under setting [1] is 380 nM.

As to `CC(C)(C)c1ccc([C@]2(O)C[C@H]3CN(CC(O)c4cccc(F)c4)C[C@H]3C2)cc1` (mixture of isomers) [Example 71, rac-5-(4-tert-butylphenyl)-2-[2-(3-fluorophenyl)-2-hydroxyethyl]-octahydrocyclopenta[c] pyrrol-5-ol], the IC50 reads like this: under setting [2], more than 10000 nM; under setting [1], not below 10000 nM. With `Cc1cc(F)ccc1C[C@]1(O)C[C@H]2CN(CC(O)c3ccc(O)cc3)C[C@H]2C1` (mixture of isomers) [Example 254, rac-(3aR,5r,6aS)-5-(4-fluoro-2-methylbenzyl)-2-(2-hydroxy-2-(4-hydroxyphenyl)ethyl) octahydrocyclopenta[c] pyrrol-5-ol], the IC50 under setting [1] was found to be 42.5 nM. Turning to `COc1cccc([C@]2(O)C[C@H]3CN(C(=O)Nc4ccc(C)cc4)C[C@H]3C2)c1` [Example 14], the IC50 was more than 10000 nM under setting [2] and not below 10000 nM under setting [1]. Under setting [1], `Oc1ccc(C(O)CN2C[C@@H]3C[C@@](O)(Cc4ccc(C(F)(F)F)cc4)C[C@@H]3C2)cc1` (mixture of isomers) [Example 224, rac-(3aR,5R,6aS)-2-[2-hydroxy-2-(4-hydroxyphenyl)ethyl]-5-{[4-(trifluoromethyl)phenyl]methyl}-octahydrocyclopenta[c] pyrrol-5-ol] came in with an IC50 of 84.8 nM. `Cc1ccc(C[C@]2(O)C[C@H]3CN(CC(O)c4ccc(O)cc4)C[C@H]3C2)cc1` (mixture of isomers) [Example 182, rac-(3aR,5R,6aS)-2-[2-hydroxy-2-(4-hydroxyphenyl)ethyl]-5-[(4-methylphenyl)methyl]-octahydrocyclopenta[c] pyrrol-5-ol] displayed an IC50 under setting [1] of 41.5 nM. For `Oc1ccc(C(O)CN2C[C@@H]3C[C@@](O)(c4ccccc4)C[C@@H]3C2)cc1` (mixture of isomers) [Example 67, rac-2-[2-hydroxy-2-(4-hydroxyphenyl)ethyl]-5-phenyl-octahydrocyclopenta[c] pyrrol-5-ol], the 50% inhibitory concentration (IC50) reads like this: under setting [2], more than 10000 nM; under setting [1], not below 10000 nM. Compound `COc1cccc(C[C@]2(O)C[C@H]3CN(CC(O)c4ccc(O)c(F)n4)C[C@H]3C2)c1` (mixture of isomers) [Example 201, rac-(3aR,5r,6aS)-2-(2-(6-fluoro-5-hydroxypyridin-2-yl)-2-hydroxyethyl)-5-(3-methoxy-benzyl)octahydro-cyclopenta[c]pyrrol-5-ol] yielded an IC50 under setting [1] of 382 nM. In the case of `Cc1ccccc1[C@]1(O)C[C@H]2CN(C(=O)Nc3cccc(Cl)c3)C[C@H]2C1` [Example 11], the IC50 under setting [2] was more than 10000 nM. Consider `O=C(Nc1cccc(Cl)c1)N1C[C@@H]2C[C@@](O)(c3ccc(F)cc3)C[C@@H]2C1` [Example 39], for which the IC50 reads like this: under setting [2], more than 10000 nM; under setting [1], not below 10000 nM. In turn, `O=C1CCc2cc(C(O)CN3C[C@@H]4C[C@@](O)(Cc5ccccc5)C[C@@H]4C3)ccc2N1` (mixture of isomers) [Example 153, rac-6-(2-((3aR,5r,6aS)-5-benzyl-5-hydroxyhexahydrocyclo-penta[c]pyrrol-2(1H)-yl)-1-hydroxyethyl)-3,4-dihydroquinolin-2(1H)-one] registered an IC50 under setting [1] of 40.2 nM. Take `Oc1ccc(C(O)CN2C[C@@H]3C[C@@](O)(Cc4ccc(F)cc4F)C[C@@H]3C2)cc1` (mixture of isomers) [Example 245, rac-5-(2,4-difluorobenzyl)-2-(2-hydroxy-2-(4-hydroxyphenyl)ethyl) octahydrocyclopenta[c] pyrrol-5-ol]: the IC50 was less than 100 nM under setting [2] and 23.8 nM under setting [1]. Regarding `CS(=O)(=O)Nc1ccc(C(O)CN2C[C@@H]3C[C@@](O)(Cc4ccccc4)C[C@@H]3C2)nc1` (mixture of isomers) [Example 236, rac-N-(6-(2-((3aR,5r,6aS)-5-benzyl-5-hydroxyhexahydrocyclo-penta[c]pyrrol-2(1H)-yl)-1-hydroxyethyl)pyridin-3-yl)methanesulfonamide], under setting [1], the IC50 was 114 nM. The compound `Oc1ccc(C(O)CN2C[C@@H]3C[C@@](O)(Cc4c(F)cccc4F)C[C@@H]3C2)nc1` (mixture of isomers) [Example 240, rac-6-{2-[(3aR,5R,6aS)-5-[(2,6-difluorophenyl)methyl]-5-hydroxy-octahydrocyclopenta[c]pyrrol-2-yl]-1-hydroxyethyl}pyridin-3-ol] returned an IC50 under setting [1] of 69.6 nM. The same measure, in the same setting: as for `COc1ccc(C[C@]2(O)C[C@H]3CN(CC(O)c4ccc(O)cn4)C[C@H]3C2)cc1` (mixture of isomers) [Example 199, rac-6-{2-[(3aR,5R,6aS)-5-hydroxy-5-[(4-methoxyphenyl)methyl]-octahydrocyclopenta[c]pyrrol-2-yl]-1-hydroxyethyl}pyridin-3-ol], the figure is 36.3 nM; as for `Oc1ccc(C(O)CN2C[C@@H]3C[C@@](O)(Cc4ccc(F)cc4)C[C@@H]3C2)nc1` (mixture of isomers) [Example 168, rac-(3aR,5r,6aS)-5-(4-fluorobenzy)-2-(2-hydroxy-2-(5-hydroxypyridin-2-yl)ethyl)octahydrocyclo-penta[c]pyrrol-5-ol], 17.8 nM. For the compound `COc1ccc(C(O)CN2C[C@@H]3C[C@@](O)(c4ccccc4)C[C@@H]3C2)cc1` (mixture of isomers) [Example 66, rac-2-[2-hydroxy-2-(4-methoxyphenyl)ethyl]-5-phenyl-octahydrocyclopenta[c] pyrrol-5-ol], the IC50 was more than 10000 nM under setting [2] and not below 10000 nM under setting [1]. For the compound `COc1cccc(C[C@]2(O)C[C@H]3CN(CC(O)c4ccc(O)cc4)C[C@H]3C2)c1` (mixture of isomers) [Example 195, rac-(3aR,5r,6aS)-2-(2-hydroxy-2-(4-hydroxyphenyl)ethyl)-5-(3-methoxy-benzyl)octahydro-cyclopenta[c]pyrrol-5-ol], the IC50 under setting [1] is 28.7 nM. `Cc1ccccc1C[C@]1(O)C[C@H]2CN(CC(O)c3ccc(O)cc3)C[C@H]2C1` (mixture of isomers) [Example 185, rac-(3aR,5r,6aS)-2-(2-hydroxy-2-(4-hydroxyphenyl)ethyl)-5-(2-methylbenzyl)octahydro-cyclopenta[c]pyrrol-5-ol] displayed an IC50 under setting [1] of 34.9 nM. Compound `CC(C(=O)c1ccc(O)cc1)N1C[C@@H]2C[C@@](O)(CCc3ccccc3)C[C@@H]2C1` (mixture of isomers) [Example 319, rac-2-(5-hydroxy-5-phenethylhexa-hydrocyclo-penta[c]pyrrol-2(1H)-yl)-1-(4-hydroxyphenyl)propan-1-one] came in with an IC50 under setting [1] of 497 nM. As for `COC(=O)c1ccc(NC(=O)N2C[C@@H]3C[C@@](O)(c4ccc(C(C)(C)C)cc4)C[C@@H]3C2)cc1` [Example 50], the IC50 under setting [2] was more than 10000 nM.
